Test results as given in patent publication US12433882B2, “Treatments for amyotrophic lateral sclerosis using dazucorilant” (Corcept Therapeutics Incorporated, priority 2022, dated 2025).
pKi: −log10 of the molar value.

Key:
androgen receptor = biological target: T1, androgen receptor (Homo sapiens, UniProt P10275); assay: Androgen receptor binding; details: 10 μM
T1 sequence (P10275 1-920): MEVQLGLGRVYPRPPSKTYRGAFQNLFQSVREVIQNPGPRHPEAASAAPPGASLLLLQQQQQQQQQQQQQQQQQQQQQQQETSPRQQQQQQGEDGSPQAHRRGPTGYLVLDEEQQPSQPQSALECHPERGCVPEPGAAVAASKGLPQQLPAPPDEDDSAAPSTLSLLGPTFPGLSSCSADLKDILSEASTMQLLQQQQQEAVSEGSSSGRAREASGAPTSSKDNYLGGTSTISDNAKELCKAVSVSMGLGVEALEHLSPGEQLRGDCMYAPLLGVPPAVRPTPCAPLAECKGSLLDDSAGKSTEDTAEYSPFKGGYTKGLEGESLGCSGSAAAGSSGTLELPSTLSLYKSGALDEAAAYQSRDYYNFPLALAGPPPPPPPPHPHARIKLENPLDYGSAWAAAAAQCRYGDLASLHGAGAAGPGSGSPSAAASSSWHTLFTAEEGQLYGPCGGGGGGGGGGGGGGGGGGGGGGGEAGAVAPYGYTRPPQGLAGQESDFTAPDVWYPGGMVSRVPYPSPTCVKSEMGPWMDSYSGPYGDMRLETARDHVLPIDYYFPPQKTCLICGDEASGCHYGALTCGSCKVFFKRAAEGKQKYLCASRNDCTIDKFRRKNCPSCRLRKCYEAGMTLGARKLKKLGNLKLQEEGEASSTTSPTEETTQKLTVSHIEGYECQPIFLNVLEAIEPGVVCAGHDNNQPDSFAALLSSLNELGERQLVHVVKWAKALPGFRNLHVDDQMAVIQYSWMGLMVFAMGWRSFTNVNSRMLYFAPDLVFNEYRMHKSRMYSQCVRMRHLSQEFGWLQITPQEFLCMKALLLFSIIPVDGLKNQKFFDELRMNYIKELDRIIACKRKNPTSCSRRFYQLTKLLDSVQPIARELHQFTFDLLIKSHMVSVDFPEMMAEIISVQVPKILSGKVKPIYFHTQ

[1] = Quantitative whole-body autoradiography (QWBA) study in rats; assay type: in vivo
Procedure: The in vivo distribution of dazucorilant was determined in a quantitative whole-body autoradiography (QWBA) study in rats. Following a single oral administration of ^14C-dazucorilant to male and female rats, radioactivity was steadily absorbed, with maximal tissue concentrations generally occurring at around 12 hours post-dose.

[2] = Safety and tolerability in healthy volunteers; assay type: in vivo
Procedure: An adaptive dose, double-blind, placebo-controlled study (NCT04249323, EudraCT 2019-004258-27) was conducted in 110 healthy male and female volunteers (18-60 years old; BMI 18-30 kg/m2; weight≤102 kg; “First In Human” (FIH) study).

GR = biological target: T2, GR (Homo sapiens, UniProt P04150); assay: Inhibition of dexamethasone effect on TAT activity, human liver carcinoma cell line; assay type: cell-based; parameters: endogenous in cells; host or cells: human liver carcinoma cell line (probably HepG2, inferred); details: read-out: Ki, inhibition of dexamethasone effects on TAT activity
T2 sequence (P04150 1-777): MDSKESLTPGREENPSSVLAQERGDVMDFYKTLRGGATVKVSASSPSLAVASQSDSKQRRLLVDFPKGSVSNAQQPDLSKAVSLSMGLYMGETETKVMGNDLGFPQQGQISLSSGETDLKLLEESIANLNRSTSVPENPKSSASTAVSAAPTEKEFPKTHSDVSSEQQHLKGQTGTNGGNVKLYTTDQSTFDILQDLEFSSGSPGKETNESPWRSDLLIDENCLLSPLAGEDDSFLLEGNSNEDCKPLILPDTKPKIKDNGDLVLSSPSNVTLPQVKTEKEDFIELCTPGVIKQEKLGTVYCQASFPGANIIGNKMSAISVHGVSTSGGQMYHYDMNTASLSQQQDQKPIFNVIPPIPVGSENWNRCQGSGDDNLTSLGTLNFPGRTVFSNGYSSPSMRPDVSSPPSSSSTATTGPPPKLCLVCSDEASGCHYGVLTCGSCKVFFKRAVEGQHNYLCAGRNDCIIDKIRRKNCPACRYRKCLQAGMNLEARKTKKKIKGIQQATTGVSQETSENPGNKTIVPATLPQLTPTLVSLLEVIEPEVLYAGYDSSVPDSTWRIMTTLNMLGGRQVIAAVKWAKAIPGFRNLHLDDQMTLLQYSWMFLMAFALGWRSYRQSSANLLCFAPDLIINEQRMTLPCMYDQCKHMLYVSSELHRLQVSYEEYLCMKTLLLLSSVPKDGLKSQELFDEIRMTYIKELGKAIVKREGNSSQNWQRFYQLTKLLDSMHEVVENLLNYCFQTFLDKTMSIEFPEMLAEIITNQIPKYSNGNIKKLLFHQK
Description: The term “glucocorticoid receptor modulator” (GRM) refers to any compound which modulates glucocorticoid binding to GR, or which modulates any biological response associated with the binding of GR to an agonist. For example, a GRM that acts as an agonist, such as dexamethasone, increases the activity of tyrosine aminotransferase (TAT) in HepG2 cells (a human liver hepatocellular carcinoma cell line; ECACC, UK). A GRM that acts as an antagonist, such as mifepristone, decreases the activity of tyrosine aminotransferase (TAT) in HepG2 cells.

[3] = first 24 hours after dosing, single oral dose, rats

O=C(c1ccccn1)[C@]12Cc3cnn(-c4ccc(F)cc4)c3C=C1CCN(S(=O)(=O)c1ccc(C(F)(F)F)cc1)C2 [dazucorilant, (R)-(1-(4-fluorophenyl)-6-((4-(trifluoromethyl)phenyl)sulfonyl)-4,4a, 5,6,7,8-hexahydro-1-H-pyrazolo[3,4-g]isoquinolin-4a-yl) (pyridin-2-yl)methanone]
binding to androgen receptor (androgen receptor): 1.5% | Tissue:blood ratio, brain [1, 3]: > 0.1 | Tissue:blood ratio, spinal cord [1, 3]: > 0.1 | time of maximal tissue concentrations of radioactivity ([1]; single oral administration, male and female rats, post-dose): around 12 hours | single doses considered safe and well tolerated ([2]; both, human, in vivo): up to 1000 mg | serious or severe treatment-emergent adverse events ([2]; healthy volunteers): No serious or severe treatment-emergent adverse events were reported | most common adverse events ([2]; human, in vivo): gastrointestinal, nervous system, musculoskeletal, and connective tissue disorders | safety concerns ([2]; human, in vivo): no significant safety concerns were identified | severity of adverse events ([2]; human, in vivo): mild to moderate | multiple doses considered safe ([2]; multiple doses QD): up to 300 mg QD | multiple doses safe and generally well tolerated ([2]; multiple doses QD): up to 200 mg QD | pKi (GR): 7.85
